From patent publication US20240245677A1, “SELECTED COMPOUNDS FOR TARGETED DEGRADATION OF BRD9” (C4 THERAPEUTICS, INC., priority 2021, published 2024)
“And” between values parts separate entries of the source, which are not always exact repeats. Equal entries are not always repeated. Where two headings read alike, the source gives them in different places.

Tests used:
[1] = Pharmacokinetic study in male CD1 mice; type: in vivo, mouse; conditions: for concentration at 0.033 h / concentration at 0.33 h / concentration at 1 h / concentration at 2 h / concentration at 4 h / concentration at 8 h / concentration at 24 h / AUC(0-t): male, CD1, mouse
Protocol: The pharmacokinetic (PK) profile in plasma of Compound 1 was determined in male CD1 mice following single dose intravenous (IV) (2 mg/kg) and per os (PO) (10 mg/kg) administration. This study was performed under non-GLP conditions, and unless otherwise stated, all analytical reagents were at least standard laboratory reagent grade, and deionized water was prepared at the study site. The characteristics of Compound 1 used in this study were as follows: molecular weight of base, 710.78; molecular weight of Compound 1 with salt, 824.81; purity on as is basis, 99.28%. All animals were housed in cages with clean bedding and maintained and monitored for good health and at the discretion of the laboratory animal veterinarian. Certified rodent diet was provided, and water was available ad libitum. […] Normal healthy animals certified by the attending veterinarian were selected and acclimatized for a minimum of three days prior to initiation of the study. Animals were identified by body markings. Test animals were weighed prior to drug administration, and the standard weight of the animals used was 30 grams. The animals were divided into two groups, IV group and PO group, with each group containing 3 test animals each and 2 spare animals. The IV dose was administered by intravenous injection into the tail vein and PO dose was administered via oral gavage. The dosing volume was 5 mL/kg body weight for both groups. The dosing concentration was 0.4 mg/mL for the IV group and 2 mg/mL for the PO group. The animals were in fasted state during the study. For both dosing groups, blood was collected from the saphenous vein (serial sampling) for plasma isolation at 0.033, 0.33, 1, 2, 4, 6, 8, and 24 hour timepoints. The anti-coagulant solution used was 6% (v/v) sodium citrate (200 mM, pH 4.79). For sample collection, the mice were restrained, and the back of the hind leg was shaved until the saphenous vein was visible. The hind limb was immobilized, and slight pressure was applied gently above the knee joint. While taking aseptic precautions, the vein was punctured using a 20 G needle and 20-30 μL of blood was collected in pre-labeled pre-chilled tubes. After blood collection from each animal, the sample from that animal was recorded in the sample collection sheet. After collection of each blood sample, the blood sample was stored on ice prior to centrifugation. Blood samples were centrifuged within 0.5 hours of collection to separate plasma. Centrifugation was conducted at 2500×g for 15 minutes at 4° C. The plasma was separated and transferred to pre-labeled micro-centrifuge tubes and promptly frozen at -80° C.±10° C. and stored until bioanalysis was performed. Each sample was identified by test compound, group, animal number, and collection time point. A fit-for-purpose bioanalytical method was developed for analyzing the plasma samples. One set of nine standards was run before the sample batch and was used for plotting the calibration curve. Quality control (QC) samples were prepared at a minimum of three concentrations, i.e., LQC (not more than 5 times to that of lowest standard concentration), HQC (not less than 75% of the highest standard concentration), and MQC (between the low and high concentration). A minimum of 6 QC samples were prepared (three concentrations in duplicate). One set of QC (LQC, MQC and HQC) samples were analyzed before and after the sample batch. Samples were analyzed by Exion AD (Sciex, Framingham, MA, USA) high-pressure liquid chromatography (HPLC) system followed by tandem mass spectroscopy analysis (MS/MS) with Q TRAP 4500 (Sciex, Framingham, MA). The samples were resolved on a Kinetex® EVO C18 4.5*50 mm, 5 μm column (Phenomenex, Inc., Torrance, CA, USA). […] The flow rate was set at 1 mL/min. […] A positive electrospray ionization (ESI) method was used for detecting analytes and internal standard by mass spectroscopy. The MRM conditions were […]

[2] = Crystallization by vapor diffusion; type: physicochemical
Protocol: Based on approximate solubility results, about 20 mg of Compound 1 free form Pattern E was dissolved in the minimal amount of good solvent in 2 mL glass vial without lid. Then the 2 mL lid less vial was placed to 8 mL vial. To the 8 mL vial was added anti-solvent. Then the 8 mL vial was capped and placed at ambient condition. Precipitates were collected by centrifugation filtration through a 0.45 μm nylon membrane filter at 14,000 rpm for 5 min. Solid parts (wet cakes) were investigated by XRPD.

[3] = mouse, plasma, male CD1 mice, 2 mg/kg IV, Mean
[4] = mouse, plasma, male CD1 mice, 10 mg/kg PO, Mean

SMILES: COc1cc(-c2cn(C)c(=O)c(C)c2C)cc(OC)c1CN1CC[C@H](N2CCN(c3ccc(N[C@H]4CCC(=O)NC4=O)cc3F)CC2)C(F)(F)C1 [Compound 1, (S)-3-((4-(4-((S)-1-(2,6-dimethoxy-4-(1,4,5-trimethyl-6-oxo-1,6-dihydropyridin-3-yl)benzyl)-3,3-difluoropiperidin-4-yl)piperazin-1-yl)-3-fluorophenyl)amino)-piperidine-2,6-dione]
- Plasma Concentration, individual mice ([1]; 2 mg/kg IV, 0.033 h): 1282.85 ng/mL and 1230.25 ng/mL
- Plasma Concentration, individual mice ([1]; 2 mg/kg IV, 0.33 h): 1069.92 ng/mL and 907.03 ng/mL
- Plasma Concentration, individual mice ([1]; 2 mg/kg IV, 1 h): 778.91 ng/mL and 554.87 ng/mL
- Plasma Concentration, individual mice ([1]; 2 mg/kg IV, 2 h): 530.20 ng/mL and 551.12 ng/mL
- Plasma Concentration, individual mice ([1]; 2 mg/kg IV, 4 h): 402.36 ng/mL and 398.41 ng/mL
- Plasma Concentration, individual mice ([1]; 2 mg/kg IV, 8 h): 230.84 ng/mL and 279.05 ng/mL
- Plasma Concentration, individual mice ([1]; 2 mg/kg IV, 24 h): 8.14 ng/mL and 10.81 ng/mL
- Plasma Concentration, individual mice ([1]; 10 mg/kg PO, 0.033 h): 113.39 ng/mL and 45.23 ng/mL and 29.34 ng/mL
- Plasma Concentration, individual mice ([1]; 10 mg/kg PO, 0.33 h): 1350.89 ng/mL and 1805.33 ng/mL
- Plasma Concentration, individual mice ([1]; 10 mg/kg PO, 1 h): 3702.63 ng/mL and 3513.39 ng/mL
- Plasma Concentration, individual mice ([1]; 10 mg/kg PO, 2 h): 3236.77 ng/mL and 3069.59 ng/mL
- Plasma Concentration, individual mice ([1]; 10 mg/kg PO, 4 h): 1775.48 ng/mL and 1635.06 ng/mL
- Plasma Concentration, individual mice ([1]; 10 mg/kg PO, 8 h): 1094.97 ng/mL and 687.92 ng/mL
- Plasma Concentration, individual mice ([1]; 10 mg/kg PO, 24 h): 40.19 ng/mL and 35.09 ng/mL
- CI ([1]; male CD1 mice, 2 mg/kg IV, Mean): 6.201 mL/min/kg
- concentration at 0.033 h ([1]; plasma, intravenous, 2 mg/kg, 2 mg/kg IV, 0.033 h, read-out: Plasma Concentration, Average): 1400 ng/mL
- concentration at 0.033 h ([1]; plasma, intravenous, 2 mg/kg, 2 mg/kg IV, 0.033 h, read-out: Plasma Concentration, individual mice): 1690 ng/mL
- concentration at 0.33 h ([1]; plasma, intravenous, 2 mg/kg, 2 mg/kg IV, 0.33 h, read-out: Plasma Concentration, Average): 1090 ng/mL
- concentration at 0.33 h ([1]; plasma, intravenous, 2 mg/kg, 2 mg/kg IV, 0.33 h, read-out: Plasma Concentration, individual mice): 1300 ng/mL
- concentration at 1 h ([1]; plasma, intravenous, 2 mg/kg, 2 mg/kg IV, 1 h, read-out: Plasma Concentration, Average): 760 ng/mL
- concentration at 1 h ([1]; plasma, intravenous, 2 mg/kg, 2 mg/kg IV, 1 h, read-out: Plasma Concentration, individual mice): 947 ng/mL
- concentration at 2 h ([1]; plasma, intravenous, 2 mg/kg, 2 mg/kg IV, 2 h, read-out: Plasma Concentration, Average): 630 ng/mL
- concentration at 2 h ([1]; plasma, intravenous, 2 mg/kg, 2 mg/kg IV, 2 h, read-out: Plasma Concentration, individual mice): 809 ng/mL
- concentration at 4 h ([1]; plasma, intravenous, 2 mg/kg, 2 mg/kg IV, 4 h, read-out: Plasma Concentration, Average): 456 ng/mL
- concentration at 4 h ([1]; plasma, intravenous, 2 mg/kg, 2 mg/kg IV, 4 h, read-out: Plasma Concentration, individual mice): 567 ng/mL
- concentration at 8 h ([1]; plasma, intravenous, 2 mg/kg, 2 mg/kg IV, 8 h, read-out: Plasma Concentration, Average): 256 ng/mL
- concentration at 8 h ([1]; plasma, intravenous, 2 mg/kg, 2 mg/kg IV, 8 h, read-out: Plasma Concentration, individual mice): 257 ng/mL
- concentration at 24 h ([1]; plasma, intravenous, 2 mg/kg, 2 mg/kg IV, 24 h, read-out: Plasma Concentration, Average): 10.2 ng/mL
- concentration at 24 h ([1]; plasma, intravenous, 2 mg/kg, 2 mg/kg IV, 24 h, read-out: Plasma Concentration, individual mice): 11.5 ng/mL
- AUC(0-t) ([1]; plasma, iv, 2 mg/kg, male CD1 mice, 2 mg/kg IV, Mean): 5390 ng·h/mL
- concentration at 0.033 h ([1]; plasma, oral, 10 mg/kg, 10 mg/kg PO, 0.033 h, read-out: Plasma Concentration, Average): 62.7 ng/mL
- concentration at 0.33 h ([1]; plasma, oral, 10 mg/kg, 10 mg/kg PO, 0.33 h, read-out: Plasma Concentration, Average): 1750 ng/mL
- concentration at 0.33 h ([1]; plasma, oral, 10 mg/kg, 10 mg/kg PO, 0.33 h, read-out: Plasma Concentration, individual mice): 2100 ng/mL
- concentration at 1 h ([1]; plasma, oral, 10 mg/kg, 10 mg/kg PO, 1 h, read-out: Plasma Concentration, Average): 3370 ng/mL
- concentration at 1 h ([1]; plasma, oral, 10 mg/kg, 10 mg/kg PO, 1 h, read-out: Plasma Concentration, individual mice): 2890 ng/mL
- concentration at 2 h ([1]; plasma, oral, 10 mg/kg, 10 mg/kg PO, 2 h, read-out: Plasma Concentration, Average): 3150 ng/mL
- concentration at 2 h ([1]; plasma, oral, 10 mg/kg, 10 mg/kg PO, 2 h, read-out: Plasma Concentration, individual mice): 3150 ng/mL
- concentration at 4 h ([1]; plasma, oral, 10 mg/kg, 10 mg/kg PO, 4 h, read-out: Plasma Concentration, Average): 1770 ng/mL
- concentration at 4 h ([1]; plasma, oral, 10 mg/kg, 10 mg/kg PO, 4 h, read-out: Plasma Concentration, individual mice): 1880 ng/mL
- concentration at 8 h ([1]; plasma, oral, 10 mg/kg, 10 mg/kg PO, 8 h, read-out: Plasma Concentration, Average): 983 ng/mL
- concentration at 8 h ([1]; plasma, oral, 10 mg/kg, 10 mg/kg PO, 8 h, read-out: Plasma Concentration, individual mice): 1170 ng/mL
- concentration at 24 h ([1]; plasma, oral, 10 mg/kg, 10 mg/kg PO, 24 h, read-out: Plasma Concentration, Average): 37.8 ng/mL
- concentration at 24 h ([1]; plasma, oral, 10 mg/kg, 10 mg/kg PO, 24 h, read-out: Plasma Concentration, individual mice): 38.2 ng/mL
- AUC(0-t) ([1]; plasma, po, 10 mg/kg, male CD1 mice, 10 mg/kg PO, Mean, first AUClast column): 20000 ng·h/mL
- AUC(0-t) ([1]; plasma, po, 10 mg/kg, male CD1 mice, 10 mg/kg PO, Mean, second AUClast column): 20200 ng·h/mL
- AUC(0-inf) [1, 3]: 5450 ng·h/mL
- C0 [1, 3]: 1440 ng/mL
- MRT last [1, 3]: 5.15 h
- half-life [1, 3]: 3.65 h
- Vd ([1]; mouse, plasma, male CD1 mice, 2 mg/kg IV, Mean, read-out: Vdss): 2.01 L/kg
- Cmax [1, 4]: 3460 ng/mL
- MRT last [1, 4]: 5.38 h
- Tmax [1, 4]: 1.33 h
- bioavailability [1, 4]: 74.1%
- half-life [1, 4]: 3.54 h
- Comments ([2]; vapor diffusion, 1,4-Dioxane/50, anti-solvent MTBE/600): Gum-like sample
- Comments ([2]; vapor diffusion, 2-MeTHF/120, anti-solvent MTBE/1080): Gum-like sample
- Comments ([2]; vapor diffusion, THF/50, anti-solvent MTBE/600): Gum-like sample
